Consider 24 compounds from PubChem BioAssay AID206 (DTP/NCI, 2004).

This experiment concerns nude mice, HT29 intrarenal xenograft, tumor weight T/C. In words: NCI In Vivo Anticancer Drug Screen. Data for tumor model HT29;CX-1 Human Adenocarcinoma (MER+) (intrarenal inoculation) in NU/NU Swiss (nude) mice. Particulars: endpoint: mean tumor weight change, higher = larger tumour. The procedure:
The antitumor activity of compounds was measured in mice bearing transplantable tumors. Survival or tumor size were measured and the results are expressed as the measurement made in the treated group (T) divided by the measurement made in the vehicle treated control group (C). The tumor model used in this assay is HT29;CX-1 Human Adenocarcinoma (MER+) (intrarenal inoculation) in NU/NU Swiss (nude) mice

The mark [1] stands for this setting: dose: 200.0 mg/kg/injection, schedule: Q04DX004 (sc), vehicle: suspension in saline.
Setting [2] is: dose: 100.0 mg/kg/injection, schedule: Q01DX010 (sc), vehicle: saline with Tween-80.
Where [3] appears, read: dose: 200.0 mg/kg/injection, schedule: Q01DX010 (sc), vehicle: saline with Tween-80.
Where [4] appears, read: dose: 400.0 mg/kg/injection, schedule: Q01DX010 (sc), vehicle: saline with Tween-80.
[5] abbreviates: dose: 50.0 mg/kg/injection, schedule: Q01DX010 (sc), vehicle: saline.
Where [6] appears, read: dose: 12.5 mg/kg/injection, schedule: Q04DX004 (sc), vehicle: suspension in saline.
Setting [7] is: dose: 50.0 mg/kg/injection, schedule: Q01DX010 (sc), vehicle: saline with Tween-80.
Setting [8] is: dose: 100.0 mg/kg/injection, schedule: Q04DX004 (sc), vehicle: saline with Tween-80.
[9] abbreviates: dose: 400.0 mg/kg/injection, schedule: Q04DX004 (sc), vehicle: saline with Tween-80.

Values joined by “and” are separate entries in the source; they are usually repeats but may differ in a detail not shown here. Equal entries are not always repeated. Records with an inconclusive call do not appear. Starred links: 1 amine or outer side, 2 acyl side, 3 side chain; linkers in the order of their positions; H or OH if unused. Positions of bridges follow the written chain, without caps; N, C: chain ends. Non-standard residues stand in square brackets, D forms with d. Residues, ends and D or L forms follow the SMILES beside them. Chains are numbered I, II in the order given. Actinocin(1to9) = Cc1c2oc3c(C)ccc(C(=O)[*:2])c3nc-2c(C(=O)[*:1])c(N)c1=O; NMeV = CN[CH](C(=O)O)C(C)C; Aze = O=C(O)[CH]1CCN1; Sar = CNCC(=O)O

Consider `C=C1C(=O)OCC1C(=O)O` (stereo unspecified), for which the T/C by setting is: (dose: 50.0 mg/kg/injection, schedule: Q04DX004 (sc), vehicle: suspension in saline) 87 % of control; (dose: 100.0 mg/kg/injection, schedule: Q04DX004 (sc), vehicle: suspension in saline) 48 % of control; under setting [1], 48 % of control.

`COC(=O)Nc1ccc(Cc2ccc(NC(=O)OC)cc2)cc1`: the T/C is, setting by setting: under setting [2], 26 % of control; under setting [3], 100 % of control; under setting [4], 152 % of control; (dose: 800.0 mg/kg/injection, schedule: Q01DX010 (sc), vehicle: saline with Tween-80) 58 % of control.

For the compound `O=C(O)CCCc1ccc(N(CCCl)CCCl)cc1`, the T/C reads like this: (dose: 0.13 mg/kg/injection, schedule: Q04DX004 (ip), vehicle: Klucel (hydroxypropylcellulose) (HPC)) 88 % of control; (dose: 0.2 mg/kg/injection, schedule: Q04DX004 (ip), vehicle: Klucel (hydroxypropylcellulose) (HPC)) 109 % of control; (dose: 0.3 mg/kg/injection, schedule: Q04DX004 (ip), vehicle: Klucel (hydroxypropylcellulose) (HPC)) 83 % of control.

Consider `C=C1C(=O)OCC2C(C(=O)O)=CC3C(C)C(C)=CC123` (stereo unspecified), for which the T/C is 71 % of control (dose: 12.5 mg/kg/injection, schedule: Q01DX010 (sc), vehicle: Klucel (hydroxypropylcellulose) (HPC)) and 94 % of control (dose: 25.0 mg/kg/injection, schedule: Q01DX010 (sc), vehicle: Klucel (hydroxypropylcellulose) (HPC)).

Turning to `CC1(C)OC(=O)N(CO)C1=O`, the T/C is 95 % of control (dose: 25.0 mg/kg/injection, schedule: Q01DX010 (sc), vehicle: saline); 118 % of control under setting [5]; 194 % of control (dose: 200.0 mg/kg/injection, schedule: Q01DX010 (sc), vehicle: saline).

On to `C[C@@](O)(/C=C/[C@H]1CC=CC(=O)O1)[C@@H](C[C@@H](O)\C=C/C=C\C=C\CO)OP(=O)(O)O`, for which the T/C runs as follows: (dose: 9.38 mg/kg/injection, schedule: Q04DX004 (sc), vehicle: saline) 76 % of control; (dose: 18.75 mg/kg/injection, schedule: Q04DX004 (sc), vehicle: saline) 102 % of control; (dose: 37.5 mg/kg/injection, schedule: Q04DX004 (sc), vehicle: saline) 72 % of control.

As to `[Cl][Pt+2][Cl].[NH-]CC1(C[NH-])CCC1`, the T/C by setting is: under setting [6], 87 % of control; (dose: 25.0 mg/kg/injection, schedule: Q04DX004 (sc), vehicle: suspension in saline) 61 % of control.

As for `CNC(=O)OCc1c(COC(=O)NC)c(-c2ccccc2)n(C)c1-c1ccccc1`, the T/C is 44 % of control (dose: 50.0 mg/kg/injection, schedule: Q04DX004 (sc), vehicle: distilled water + Tween-80); 68 % of control (dose: 200.0 mg/kg/injection, schedule: Q04DX004 (sc), vehicle: distilled water + Tween-80); 104 % of control (dose: 400.0 mg/kg/injection, schedule: Q04DX004 (sc), vehicle: distilled water + Tween-80).

As for `CN1C(=O)NC(c2ccc(Cl)cc2)(c2ccc(Cl)cc2)C1=O`, the T/C was 97 % of control under setting [7], 109 % of control under setting [2] and 43 % of control under setting [4].

For `NC(=S)c1cn(C2OC(CO)C(O)C2O)c2ncnc(N)c12` (stereo unspecified), the T/C runs as follows: (dose: 6.25 mg/kg/injection, schedule: Q04DX004 (sc), vehicle: suspension in saline) 62 % of control; under setting [6], 79 % of control.

On to `Cc1c2oc3c(C)ccc(C(=O)NC4C(=O)NC(C(C)C)C(=O)N5CCCC5C(=O)N(C)CC(=O)N(C)C(C(C)C)C(=O)OC4C)c3nc-2c(C(=O)NC2C(=O)NC(C(C)C)C(=O)N3CCC3C(=O)N(C)CC(=O)N(C)C(C(C)C)C(=O)OC2C)c(N)c1=O` (stereo unspecified) (I: TV[Aze][Sar][NMeV] / II: TVP[Sar][NMeV]; ester I:1-I:C, II:1-II:C; linker I:N-II:N via Actinocin(1to9); configuration not given here), for which the T/C reads like this: (dose: 0.5 mg/kg/injection, schedule: Q04DX004 (sc), vehicle: saline + alcohol) 59 % of control; (dose: 1.0 mg/kg/injection, schedule: Q04DX004 (sc), vehicle: saline + alcohol) 30 % of control.

On to `NC(C/[N+]([O-])=N/O)C(=O)O` (stereo unspecified), for which the T/C is, setting by setting: under setting [5], 186 % of control; (dose: 100.0 mg/kg/injection, schedule: Q01DX010 (sc), vehicle: saline) 53 % of control.

In the case of `Cc1ccc(S(=O)(=O)NC(=S)S)cc1`, the T/C under setting [2] was 110 % of control and the T/C under setting [3] was 191 % of control.

On to `Cc1ccc2nc(-c3ccc4nc(-c5ccc(N=Nc6ccc(-c7nc8ccc(-c9nc%10ccc(C)c(S(=O)(=O)O)c%10s9)cc8s7)cc6)cc5)sc4c3)sc2c1S(=O)(=O)O`, for which the T/C runs as follows: under setting [1], 190 % of control; (dose: 400.0 mg/kg/injection, schedule: Q04DX004 (sc), vehicle: suspension in saline) 109 % of control; (dose: 800.0 mg/kg/injection, schedule: Q04DX004 (sc), vehicle: suspension in saline) 221 % of control; (dose: 1600.0 mg/kg/injection, schedule: Q04DX004 (sc), vehicle: suspension in saline) 50 % of control.

Consider `N#CC(=C1C=CC(=NO)C=C1)c1ccc(Cl)cc1`, for which the T/C is, setting by setting: (dose: 50.0 mg/kg/injection, schedule: Q04DX004 (sc), vehicle: saline with Tween-80) 80 % of control; under setting [8], 90 % of control; under setting [9], 113 % of control.

In the case of `OCC1(CO)COC2(CCCCC2)N1`, the T/C is 115 % of control (dose: 600.0 mg/kg/injection, schedule: Q04DX004 (sc), vehicle: suspension in saline); 56 % of control (dose: 1200.0 mg/kg/injection, schedule: Q04DX004 (sc), vehicle: suspension in saline); 109 % of control (dose: 2400.0 mg/kg/injection, schedule: Q04DX004 (sc), vehicle: suspension in saline).

On to `CC1(CO)C(O)CCC2(C)C1CCC1CC3CC12CCC3(O)CO` (stereo unspecified), for which the T/C was 50 % of control and 65 % of control under setting [7]; 69 % of control under setting [2]; 65 % of control under setting [3].

With `O=c1[nH]cnc2n[nH]nc12`, the T/C (dose: 300.0 mg/kg/injection, schedule: Q04DX004 (sc), vehicle: Klucel (hydroxypropylcellulose) (HPC)) was 94 % of control; the T/C (dose: 600.0 mg/kg/injection, schedule: Q04DX004 (sc), vehicle: Klucel (hydroxypropylcellulose) (HPC)) is 50 % of control; the T/C (dose: 2400.0 mg/kg/injection, schedule: Q04DX004 (sc), vehicle: Klucel (hydroxypropylcellulose) (HPC)) is 30 % of control.

As to `ClCC[Se](Cl)(Cl)c1ccccc1`, the T/C reads like this: (dose: 12.5 mg/kg/injection, schedule: Q04DX004 (sc), vehicle: saline) 154 % of control; (dose: 50.0 mg/kg/injection, schedule: Q04DX004 (sc), vehicle: saline) 100 % of control.

Turning to `C1CCC2C[N-]CCC2C1.C1CCC2C[N-]CCC2C1.C1CCC2C[N-]CCC2C1.C1CCC2C[N-]CCC2C1.[Cl][Rh][Cl]` (stereo unspecified), the T/C is 96 % of control (dose: 9.0 mg/kg/injection, schedule: Q04DX004 (sc), vehicle: saline with Tween-80); 82 % of control (dose: 18.0 mg/kg/injection, schedule: Q04DX004 (sc), vehicle: saline with Tween-80); 84 % of control (dose: 36.0 mg/kg/injection, schedule: Q04DX004 (sc), vehicle: saline with Tween-80); 73 % of control (dose: 72.0 mg/kg/injection, schedule: Q04DX004 (sc), vehicle: saline with Tween-80).

Consider `CC(Cc1ccc(O)cc1)NCC(O)c1ccc(O)c(O)c1` (stereo unspecified), for which the T/C under setting [8] is 106 % of control; the T/C (dose: 200.0 mg/kg/injection, schedule: Q04DX004 (sc), vehicle: saline with Tween-80) was 91 % of control; the T/C under setting [9] is 89 % of control; the T/C (dose: 800.0 mg/kg/injection, schedule: Q04DX004 (sc), vehicle: saline with Tween-80) was 80 % of control.

With `COc1cccc2c1C(=O)c1c(O)c3c(c(O)c1C2=O)C[C@@](O)(/C(C)=N/NC(=O)c1ccccc1)C[C@@H]3OC1CC(N)C(O)C(C)O1` (stereo partly specified), the T/C reads like this: (dose: 18.75 mg/kg/injection, schedule: Q04DX004 (sc), vehicle: water) 117 % of control; (dose: 37.5 mg/kg/injection, schedule: Q04DX004 (sc), vehicle: water) 123 % of control.

For the compound `COc1ccc(OC)c(Cc2cnc3nc(N)nc(N)c3c2C)c1`, the T/C reads like this: (dose: 150.0 mg/kg/injection, schedule: Q04DX004 (sc), vehicle: water) 116 % of control; (dose: 300.0 mg/kg/injection, schedule: Q04DX004 (sc), vehicle: water) 54 % of control.

For `O.O.[NH-]C1CCCCC1[NH-].[Pt+2]` (stereo unspecified), the T/C reads like this: (dose: 10.0 mg/kg/injection, schedule: Q01DX010 (sc), vehicle: saline) 74 % of control; (dose: 20.0 mg/kg/injection, schedule: Q01DX010 (sc), vehicle: saline) 54 % of control.
